{"source": "patent US7608640B2", "about": "“Glycine betaine and its use” (priority 2001, dated 2009)", "key": {"[1]": {"test_system": "platelet aggregations induced by ADP, collagen, epinephrine, adrenaline, thrombin, ristocetine, arachidonic acid", "assay": "Human in vivo test, induced platelet aggregations in heavy smokers", "details": "two heavy smokers, oral capsules 5 g/day during 7 days", "protocol": "This example describes a human in vivo test. Two volunteers (with a weight of about 70-75 kg), considered as heavy smokers (smoking more than 10 cigarettes/day) have orally taken capsules (gastro soluble) containing 5 g anhydrous glycine betaine/day during 7 days. Before administration of the betaine, the aggregations induced by ADP, by collagen, by epinephrine, by adrenaline, by thrombin, by ristocetine and by arachidonic acid were determined. After one week of treatment, the same platelet aggregations were measured. It appeared from said tests that all the induced platelet aggregations were reduced for all said endogenous agonists of at least 30%. Better results are expected when using oral dosage form with controlled release, such as gastro insoluble, but entero soluble form."}, "coagulation factors": {"test_system": "coagulation factors", "assay": "Plasminogenesis, coagulation and anti Xa in the stasis-induced thrombosis model", "format": "in vivo, rat", "protocol": "A laparotomy was performed to open the lower vena cava, on which a ligature was placed at T0, followed by subcutaneous injection of glycine betaine at T0+2 hours, followed by withdrawal of the clot and blood samples at T0+6 hours."}, "[2]": {"test_system": "induced haemorrhage in rats", "assay": "Anti-haemorrahgic activity with aspirin or heparin", "format": "in vivo, rat", "details": "glycine betaine 2-50 mg given with 100 mg aspirin or 2 mg heparin, versus aspirin or heparin alone", "protocol": "This example tested anti-haemorrahgic activity using rats. Some rats received an active agent with haemorrahgic side effect, while other rats received said active agent together with a dose of betaine.\nThe following products were administered to rats for determining whether glycine betaine has an anti-haemorrahgic effect: • 100 mg aspirin per kg life body • 100 mg aspirin+50 mg glycine betaine per kg life body • 2 mg heparin • 2 mg heparin+50 mg glycine betaine • 2 mg heparin+10 mg glycine betaine • 2 mg heparin+2 mg glycine betaine"}, "[3]": {"test_system": "arterial thrombosis induced by laser beam in the mesenteric microcirculation of the rat", "assay": "Laser-induced thrombosis in the mesenteric microcirculation", "format": "in vivo", "details": "oral 50 mg/kg"}, "[4]": {"test_system": "platelet aggregation induced with collagen", "assay": "Aggregation induced with collagen", "format": "in vivo, rat", "details": "collagen 10 μgr/ml", "protocol": "(§1) The aggregation is made in accordance to the methods of Cardinal & Flower. Pharmacol. Method. 1980, and to American Journal of Clinical Pathology, 1989; 92: 676-679, Sureney. J D. Whole Blood aggregometry. After a keeping period of 8 days, the rats are subjected to a fasting for 12 hours. Betaine is subcutaneously injected one hour before blood sampling. The rats are then anaesthetised with sodium Thiopental administered at a dose of 200 mg/Kg and the blood samples are taken by intracardiac puncture on a trisodium citrate solution (1 volume of solution at 3.8% citrate for 9 volumes of blood).\n• This example evaluates aggregation induced with collagen. • Collagen concentration 10 μgr/ml"}, "[5]": {"test_system": "venous thrombosis induced by stasis (lower vena cava ligature)", "assay": "Stasis-induced venous thrombosis, clot weight", "format": "in vivo, rat", "protocol": "B/Stasis-induced Thrombosis A laparotomy was performed to open the lower vena cava, on which a ligature was placed at T0, followed by subcutaneous injection of glycine betaine at T0+2 hours, followed by withdrawal of the clot and blood samples at T0+6 hours. Male Wistar rats were used for these tests. They weighed between 200 and 250 grams. After an 8-day stabilisation period, the rats were subjected to fasting for 12 hours. They were then anaesthetised, glycine betaine was administered subcutaneously, and the mesentery (laser) or vena cava (stasis) was opened at the end of the experiments."}, "[6]": {"details": "value taken for the deconvolution technique; cited from earlier work"}, "[7]": {"test_system": "platelet aggregation induced with ADP", "assay": "Aggregation induced with ADP", "format": "in vivo, rat", "details": "ADP 5 μM", "protocol": "as §1\n• This example evaluated aggregation induced with ADP. • Final ADP concentration 5 μM"}, "[8]": {"test_system": "intrinsic coagulation pathway", "assay": "Activated coagulation time (kaolin)", "format": "in vivo, rat", "text": "Activated Coagulation Time (Kaolin)\nThis test explores the intrinsic coagulation pathway. […] These tubes contain the kaolin activator. (Method HaemoTec., automated coagulation timer manufactured by MEDTRONIC HAEMOTEC Inc., Englewood, Colo., USA)."}}}
{"smiles": "C[N+](C)(C)CC(=O)O", "note": "[Glycine betaine]", "values": [{"measurement": "Reduction of induced platelet aggregations (all agonists)", "setting": "[1]", "value": "at least 30%"}, {"measurement": "ACT", "setting": "coagulation factors; 1 mg/kg", "value": "29.1 ± 2.3", "unit": "s"}, {"measurement": "Anti Xa", "setting": "coagulation factors; 1 mg/kg", "value": "0.08 ± 0.1", "unit": "units/ml"}, {"measurement": "Fibrinogen", "setting": "coagulation factors; 1 mg/kg", "value": "2.63 ± 0.3", "unit": "g/L"}, {"measurement": "Plasminogenesis", "setting": "coagulation factors; 1 mg/kg", "value": "2.44 ± 0.58", "unit": "%"}, {"measurement": "Quick time", "setting": "coagulation factors; 1 mg/kg", "value": "16.2 ± 1.2", "unit": "s"}, {"measurement": "ACT", "setting": "coagulation factors; 2.5 mg/kg", "value": "31.2 ± 2.6", "unit": "s"}, {"measurement": "Anti Xa", "setting": "coagulation factors; 2.5 mg/kg", "value": "0.14 ± 0.10", "unit": "units/ml"}, {"measurement": "Fibrinogen", "setting": "coagulation factors; 2.5 mg/kg", "value": "2.2 ± 0.17", "unit": "g/L"}, {"measurement": "Plasminogenesis", "setting": "coagulation factors; 2.5 mg/kg", "value": "2 ± 0.15", "unit": "%"}, {"measurement": "Quick time", "setting": "coagulation factors; 2.5 mg/kg", "value": "16.6 ± 0.7", "unit": "s"}, {"measurement": "ACT", "setting": "coagulation factors; 5 mg/kg", "value": "33.5 ± 1.9", "unit": "s"}, {"measurement": "Anti Xa", "setting": "coagulation factors; 5 mg/kg", "value": "0.35 ± 0.15", "unit": "units/ml"}, {"measurement": "Fibrinogen", "setting": "coagulation factors; 5 mg/kg", "value": "2.32 ± 0.33", "unit": "g/L"}, {"measurement": "Plasminogenesis", "setting": "coagulation factors; 5 mg/kg", "value": "1.66 ± 0.58", "unit": "%"}, {"measurement": "Quick time", "setting": "coagulation factors; 5 mg/kg", "value": "15.6 ± 0.4", "unit": "s"}, {"measurement": "Bleeding time after induced haemorrhage", "setting": "[2]", "value": "bleeding time was reduced"}, {"measurement": "Number of emboles", "setting": "[3]; 1 hour", "value": "0 +/− 0"}, {"measurement": "Embolisation time", "setting": "[3]; 48 hours", "value": "2 ± 0", "unit": "min"}, {"measurement": "Number of laser firing", "setting": "[3]; 48 hours", "value": "2.33 +/− 0.57"}, {"measurement": "Amplitude", "setting": "[4]; 2.5 mg/kg", "value": "13.75 +/− 0.96 ohms"}, {"measurement": "Velocity", "setting": "[4]; 2.5 mg/kg", "value": "9.25 +/− 2.63 ohm/minute"}, {"measurement": "Amplitude", "setting": "[4]; 5 mg/kg", "value": "5.5 +/− 1.29 ohms"}, {"measurement": "Velocity", "setting": "[4]; 5 mg/kg", "value": "4.5 +/− 1 ohm/minute"}, {"measurement": "Amplitude", "setting": "[4]; 10 mg/kg", "value": "1.5 +/− 1.29 ohms"}, {"measurement": "Velocity", "setting": "[4]; 10 mg/kg", "value": "2 +/− 0.82 ohm/minute"}, {"measurement": "Clot weight", "setting": "[5]; 1 mg/kg s.c.", "value": "3.1 ± 0.4", "unit": "mg"}, {"measurement": "Clot weight", "setting": "[5]; 2.5 mg/kg s.c.", "value": "1.63 ± 0.76", "unit": "mg"}, {"measurement": "Clot weight", "setting": "[5]; 5 mg/kg s.c.", "value": "0.76 ± 0.4", "unit": "mg"}, {"measurement": "Elimination half life", "setting": "[6]", "value": 7.8, "unit": "h"}, {"measurement": "Amplitude", "setting": "[7]; 2.5 mg/kg", "value": "13 +/− 0.82 ohms"}, {"measurement": "Velocity", "setting": "[7]; 2.5 mg/kg", "value": "5.75 +/− 0.96 ohm/minute"}, {"measurement": "Amplitude", "setting": "[7]; 5 mg/kg", "value": "7.25 +/− 0.96 ohms"}, {"measurement": "Velocity", "setting": "[7]; 5 mg/kg", "value": "4.75 +/− 0.5 ohm/minute"}, {"measurement": "Amplitude", "setting": "[7]; 10 mg/kg", "value": "0 +/− 0 ohms"}, {"measurement": "Velocity", "setting": "[7]; 10 mg/kg", "value": "0 +/− 0 ohm/minute"}, {"measurement": "Activated coagulation time", "setting": "[8]; 10 mg/kg subcutaneous", "value": 128, "unit": "s"}, {"measurement": "Activated coagulation time", "setting": "[8]; 10 mg/kg subcutaneous, after 24 hours", "value": "71 ± 3.51", "unit": "s"}, {"measurement": "Activated coagulation time", "setting": "[8]; 20 mg/kg subcutaneous, after 24 hours", "value": "154.66 ± 11.01", "unit": "s"}, {"measurement": "Activated coagulation time", "setting": "[8]; 30 mg/kg subcutaneous", "value": 179, "unit": "s"}, {"measurement": "Activated coagulation time", "setting": "[8]; 50 mg/kg subcutaneous", "value": 215, "unit": "s"}, {"measurement": "Activated coagulation time relative to control", "setting": "[8]; 50 mg/kg subcutaneous", "value": "four times higher"}, {"measurement": "Activated coagulation time", "setting": "[8]; oral 50 mg/kg, 1 hour", "value": "96 ± 11.27", "unit": "s"}, {"measurement": "Activated coagulation time", "setting": "[8]; oral 50 mg/kg, 6 hours", "value": "124.66 ± 9.29", "unit": "s"}, {"measurement": "Activated coagulation time", "setting": "[8]; oral 50 mg/kg, 24 hours", "value": "64.66 ± 7.37", "unit": "s"}, {"measurement": "Activated coagulation time", "setting": "[8]; oral 50 mg/kg, 48 hours", "value": "55.66 ± 7.02", "unit": "s"}]}
